{"source": "PubChem BioAssay (NCI)", "assay_in_all_cases": "NCI anticancer screen, dose series, 48 h", "key": {"DU-145 prostate": {"test_system": "DU-145 prostate"}, "UO-31 renal": {"test_system": "UO-31 renal"}, "SNB-19 CNS": {"test_system": "SNB-19 CNS"}, "OVCAR-3 ovarian": {"test_system": "OVCAR-3 ovarian"}, "NCI-H522 lung": {"test_system": "NCI-H522 lung"}, "HOP-62 NSCLC": {"test_system": "HOP-62 NSCLC"}, "U251 CNS": {"test_system": "U251 CNS"}, "SNB-75 CNS": {"test_system": "SNB-75 CNS"}, "SF-539 CNS": {"test_system": "SF-539 CNS"}, "HS 578T breast": {"test_system": "HS 578T breast"}, "OVCAR-5 ovarian": {"test_system": "OVCAR-5 ovarian"}, "T-47D breast": {"test_system": "T-47D breast"}, "A498 renal": {"test_system": "A498 renal"}, "M14 melanoma": {"test_system": "M14 melanoma"}, "MDA-MB-231 breast": {"test_system": "MDA-MB-231 breast"}, "HCT-116 colon": {"test_system": "HCT-116 colon"}, "UACC-257 melanoma": {"test_system": "UACC-257 melanoma"}, "NCI/ADR-RES ovarian": {"test_system": "NCI/ADR-RES ovarian"}, "MALME-3M melanoma": {"test_system": "MALME-3M melanoma"}, "SK-OV-3 ovarian": {"test_system": "SK-OV-3 ovarian"}, "SN12C renal": {"test_system": "SN12C renal"}, "NCI-H23 lung": {"test_system": "NCI-H23 lung"}, "OVCAR-4 ovarian": {"test_system": "OVCAR-4 ovarian"}, "HT29 colon": {"test_system": "HT29 colon"}, "SK-MEL-2 melanoma": {"test_system": "SK-MEL-2 melanoma"}, "PC-3 prostate": {"test_system": "PC-3 prostate"}, "RPMI-8226 leukemia": {"test_system": "RPMI-8226 leukemia"}, "CCRF-CEM leukemia": {"test_system": "CCRF-CEM leukemia"}}, "note": "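Exposure lasted 48 hours, with cells grown in 96-well plates and compounds tested at five concentrations. GI50 is the concentration that inhibits growth by half. At the TGI there is no net growth.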", "data": [{"smiles": "O=c1[nH]c2c(ccc3cnccc32)c2c1CCC2", "values": [{"measurement": "TGI", "setting": "DU-145 prostate", "value": "> 100000", "unit": "nM"}, {"measurement": "GI50", "setting": "UO-31 renal", "value": 243, "unit": "nM"}, {"measurement": "TGI", "setting": "UO-31 renal", "value": 670, "unit": "nM"}, {"measurement": "GI50", "setting": "SNB-19 CNS", "value": 356, "unit": "nM"}, {"measurement": "TGI", "setting": "SNB-19 CNS", "value": "> 100000", "unit": "nM"}, {"measurement": "GI50", "setting": "OVCAR-3 ovarian", "value": 277, "unit": "nM"}, {"measurement": "TGI", "setting": "OVCAR-3 ovarian", "value": 11700, "unit": "nM"}, {"measurement": "GI50", "setting": "NCI-H522 lung", "value": 277, "unit": "nM"}, {"measurement": "GI50", "setting": "HOP-62 NSCLC", "value": 431, "unit": "nM"}, {"measurement": "TGI", "setting": "HOP-62 NSCLC", "value": "> 100000", "unit": "nM"}, {"measurement": "GI50", "setting": "U251 CNS", "value": 330, "unit": "nM"}, {"measurement": "TGI", "setting": "U251 CNS", "value": "> 100000", "unit": "nM"}, {"measurement": "GI50", "setting": "SNB-75 CNS", "value": 324, "unit": "nM"}, {"measurement": "TGI", "setting": "SNB-75 CNS", "value": 1400, "unit": "nM"}, {"measurement": "GI50", "setting": "SF-539 CNS", "value": 219, "unit": "nM"}, {"measurement": "TGI", "setting": "SF-539 CNS", "value": 585, "unit": "nM"}, {"measurement": "GI50", "setting": "HS 578T breast", "value": 247, "unit": "nM"}, {"measurement": "TGI", "setting": "HS 578T breast", "value": 808, "unit": "nM"}, {"measurement": "GI50", "setting": "OVCAR-5 ovarian", "value": 461, "unit": "nM"}, {"measurement": "TGI", "setting": "OVCAR-5 ovarian", "value": "> 100000", "unit": "nM"}, {"measurement": "GI50", "setting": "T-47D breast", "value": 352, "unit": "nM"}, {"measurement": "TGI", "setting": "T-47D breast", "value": "> 100000", "unit": "nM"}, {"measurement": "GI50", "setting": "A498 renal", "value": 155, "unit": "nM"}, {"measurement": "TGI", "setting": "A498 renal", "value": 553, "unit": "nM"}, {"measurement": "GI50", "setting": "M14 melanoma", "value": 350, "unit": "nM"}, {"measurement": "TGI", "setting": "M14 melanoma", "value": 1620, "unit": "nM"}, {"measurement": "GI50", "setting": "MDA-MB-231 breast", "value": 361, "unit": "nM"}, {"measurement": "TGI", "setting": "MDA-MB-231 breast", "value": "> 100000", "unit": "nM"}, {"measurement": "GI50", "setting": "HCT-116 colon", "value": 267, "unit": "nM"}, {"measurement": "TGI", "setting": "HCT-116 colon", "value": "> 45800", "unit": "nM"}, {"measurement": "GI50", "setting": "UACC-257 melanoma", "value": 245, "unit": "nM"}, {"measurement": "TGI", "setting": "UACC-257 melanoma", "value": 833, "unit": "nM"}, {"measurement": "GI50", "setting": "NCI/ADR-RES ovarian", "value": 426, "unit": "nM"}, {"measurement": "TGI", "setting": "NCI/ADR-RES ovarian", "value": "> 100000", "unit": "nM"}, {"measurement": "GI50", "setting": "MALME-3M melanoma", "value": 312, "unit": "nM"}, {"measurement": "TGI", "setting": "MALME-3M melanoma", "value": 951, "unit": "nM"}, {"measurement": "GI50", "setting": "SK-OV-3 ovarian", "value": 1700, "unit": "nM"}, {"measurement": "TGI", "setting": "SK-OV-3 ovarian", "value": "> 100000", "unit": "nM"}, {"measurement": "GI50", "setting": "SN12C renal", "value": 365, "unit": "nM"}, {"measurement": "TGI", "setting": "SN12C renal", "value": "> 100000", "unit": "nM"}, {"measurement": "GI50", "setting": "NCI-H23 lung", "value": 394, "unit": "nM"}, {"measurement": "TGI", "setting": "NCI-H23 lung", "value": "> 20300", "unit": "nM"}, {"measurement": "GI50", "setting": "OVCAR-4 ovarian", "value": 726, "unit": "nM"}, {"measurement": "TGI", "setting": "OVCAR-4 ovarian", "value": "> 100000", "unit": "nM"}, {"measurement": "GI50", "setting": "HT29 colon", "value": 447, "unit": "nM"}, {"measurement": "TGI", "setting": "HT29 colon", "value": "> 100000", "unit": "nM"}, {"measurement": "GI50", "setting": "SK-MEL-2 melanoma", "value": 221, "unit": "nM"}, {"measurement": "TGI", "setting": "SK-MEL-2 melanoma", "value": 673, "unit": "nM"}, {"measurement": "GI50", "setting": "PC-3 prostate", "value": 288, "unit": "nM"}, {"measurement": "GI50", "setting": "RPMI-8226 leukemia", "value": 244, "unit": "nM"}, {"measurement": "TGI", "setting": "RPMI-8226 leukemia", "value": 1180, "unit": "nM"}, {"measurement": "GI50", "setting": "CCRF-CEM leukemia", "value": 248, "unit": "nM"}, {"measurement": "TGI", "setting": "CCRF-CEM leukemia", "value": 708, "unit": "nM"}]}]}
